Assay results: patent US11384381B2, “Reaction accelerating agent” (Kikkoman Corporation, priority 2016, dated 2022)

What was measured:
[1] = test system: fructosyl peptide oxidase (FPOX-CET); experiment: Fructosyl valyl histidine detection reaction completed with excess fructosyl peptide oxidase (Example 6); format: biochemical; conditions: 0.04% (w/v) compound, 4.8 U/ml FPOX-CET (excess), 32 μM fructosyl valyl histidine, pH 7.0, 37° C.; for ΔA9 min: change in A694-A751 9 minutes after mixing; for ΔA10 min: change in A694-A751 10 minutes after mixing, defined as ΔA100%
Experimental: In this Example the amount of change in absorbance is determined when the detection reaction of the substrate fructosyl valyl histidine was completed using an excess amount of fructosyl peptide oxidase (FPOX-CET), which is an oxidase.
A reagent for fructosyl valyl histidine measurement having the following composition was prepared, and the measurement of fructosyl valyl histidine using fructosyl peptide oxidase was carried out using Bio Majesty JCA-BM1650 (manufactured by JEOL Ltd.).
32 μM fructosyl valyl histidine (manufactured by Kikkoman Biochemifa Company)
30 mM MOPS-NaOH buffer solution, pH 7.0
0.2% (v/v) Triton X-100 (manufactured by Wako Pure Chemical Industries, Ltd.)
(§1) 10 U/ml peroxidase PEO-301 (Toyobo Co., Ltd.)
(§2) 0.023 mM 10-(carboxymethylaminocarbonyl)-3,7-bis(dimethylamino)phenothiazine sodium (DA-67, manufactured by Wako Pure Chemical Industries, Ltd.)
0.04% (w/v) of the compound of Comparative Example 2, any one compound of the present invention, or compound-free (Comparative Example 1) ion-exchange water as shown in Table 1
10 mM MOPS-NaOH buffer solution, pH 7.0
4.8 U/ml FPOX-CET (manufactured by Kikkoman Biochemifa Company)
8 μl of the sample was added to 96 μl of the first reagent-B, and the mixture was incubated at 37° C. for 5 minutes. Then, 24 μl of the second reagent-C was added thereto, and the quantitative reaction of hydrogen peroxide resulting from the oxidation of fructosyl valyl histidine was allowed to progress at 37° C. for 5 minutes. The absorbance (A694 and A751) of the reaction solution for light at wavelengths of 694 nm and 751 nm was measured over time for 10 minutes after the mixing of the sample with the first reagent-B to determine the value of subtraction of A751 from A694, i.e., the value A694/751. Subsequently, ΔA was calculated by subtracting, from […], the value of (104/128) times A694/751 4.8 minutes after the mixing of the sample with the first reagent-B. Incidentally, 4.8 minutes after the mixing of the sample with the first reagent-B represents the time immediately before the addition of the second reagent-C. ΔA 9 minutes and 10 minutes after the mixing of the diluted sample with the first reagent-B (ΔA9min and ΔA10min) are shown in Table 3.
In other words, it can be recognized that the quantitative reaction of fructosyl valyl histidine, i.e., the quantitative reaction of hydrogen peroxide resulting from the oxidation of fructosyl valyl histidine, was completed in 10 minutes after the mixing of the diluted sample with the first reagent-B. Accordingly, in Examples 6 and 7, ΔA10min in each Comparative Example or the present invention was defined as ΔA when 100% of the quantitative reaction of […] progressed under each condition (ΔA100%).

CFP-DH4 (A1cOX) = experiment: Acceleration of HbA1c detection reaction with small amount of A1cOX (Example 5); format: biochemical; conditions: 0.04% (w/v) compound, 1.1 mg/ml CFP-DH4; for effect of accelerating the HbA1c detection reaction: versus not added; for Degree of progression of reaction (%) after 7.5 minutes / Degree of progression of reaction (%) after 10 minutes: HbA1c detection reaction, ΔA/ΔA100%; for Degree of progression of reaction (%) after 7.5 minutes: 2.5 minutes after addition of second reagent, not added: 51; for Degree of progression of reaction (%) after 10 minutes: 5 minutes after addition of second reagent, not added: 73
Experimental: Next, in this Example, the degree of acceleration of HbA1c detection reaction by the compound of the present invention was determined using a small amount of A1cOX.
A reagent for HbA1c measurement having the following composition was prepared, and the measurement of HbA1c was carried out using Bio Majesty JCA-BM1650 (manufactured by JEOL Ltd.).
Blood cells (10.4% HbA1c (NGSP value))
30 mM MOPS-NaOH buffer solution, pH 6.5
0.2% (w/v) n-dodecyl-3-D-maltoside (manufactured by Dojindo Laboratories)
as §1, §2
0.04% (w/v) of the compound of Comparative Example 2, any one compound of the present invention, or compound-free (Comparative Example 1) ion-exchange water as shown in Table 2
10 mM MOPS-NaOH buffer solution, pH 6.5
1.1 mg/ml CFP-DH4 (A cOX)
8 μl of the sample diluted 51-fold with ion-exchange water was added to 96 μl of the first reagent, and the mixture was incubated at 37° C. for 5 minutes. Then, 24 μl of the second reagent-B was added thereto, and the quantitative reaction of hydrogen peroxide resulting from the oxidation of the β-chain amino terminus of HbA1c was allowed to progress at 37° C. for 5 minutes. The absorbance ([…] and A751) of the reaction solution for light at wavelengths of 694 nm and 751 nm was measured over time for 10 minutes after the mixing of the diluted sample with the first reagent to determine the value of subtraction of A751 from A694, i.e., the value A694/751. Subsequently, ΔA was calculated by subtracting, from A694/751, the value of (104/128) times A694/751 4.8 minutes after the mixing of the diluted sample with the first reagent. Incidentally, […] after the mixing of the diluted sample with the first reagent represents the time immediately before the addition of the second reagent-B.
Next, ΔA calculated in this Example was divided by ΔA100% defined in Example 4 to calculate the degree of progression of HbA1c detection reaction. The degree of progression of HbA1c detection reaction 7.5 and 10 minutes after the mixing of the diluted sample with the first reagent (in other words, 2.5 and 5 minutes after the addition of the second reagent-B) is shown in Table 2.

Molecule	ΔA9 min [1]	ΔA10 min [1]	effect of accelerating the HbA1c detection reaction (CFP-DH4 (A1cOX))	Degree of progression of reaction (%) after 7.5 minutes (CFP-DH4 (A1cOX)) [%]	Degree of progression of reaction (%) after 10 minutes (CFP-DH4 (A1cOX)) [%]
Cc1nn(-c2cc(S(=O)(=O)[O-])ccc2Cl)c(O)c1N=Nc1ccccc1.[Na+] [Acid Yellow 34]	0.032	0.033	effect of accelerating the HbA1c detection reaction	75	95
Xylene Fast Yellow 2G	0.027	0.027	effect of accelerating the HbA1c detection reaction	58	83
O=C([O-])c1cc(N=Nc2cccc([N+](=O)[O-])c2)ccc1O.[Na+] [Alizarin Yellow GG]	–	–	effect of accelerating the HbA1c detection reaction	76	91
O=C(O)c1cc(N=Nc2ccc3cc(S(=O)(=O)O)ccc3c2)ccc1O.[Na] [Chrome Yellow]	0.064	0.064	effect of accelerating the HbA1c detection reaction	53	77
Acid Red 151	–	–	effect of accelerating the HbA1c detection reaction	55	80
O=C([O-])c1cc(N=Nc2ccc([N+](=O)[O-])cc2)ccc1O.[Na+] [Mordant Orange 1]	–	–	effect of accelerating the HbA1c detection reaction	80	94
COc1cc(N=Nc2cccc(S(=O)(=O)[O-])c2)ccc1NC(=O)Nc1ccc(N=Nc2ccc(O)c(C(=O)[O-])c2)cc1.[Na+].[Na+] [Direct Yellow 44]	0.043	0.043	effect of accelerating the HbA1c detection reaction	77	96
O=S(=O)([O-])c1cccc(N=Nc2ccc(Nc3ccccc3)cc2)c1.[Na+] [Acid Yellow 36]	–	–	effect of accelerating the HbA1c detection reaction	53	81
